Assay results reported in US20230346827A1 (priority 2020, published 2023).

Test system: Mouse motor neurons
Assay: Gene expression array and pathway analysis, motor neurons, LMW-DS 0.01 mg/ml 48 h
Format: cell-based
Settings: for number of genes: abolished nutrient effect / number of genes: new effect induced by LMW-DS / number of genes: total / number of genes: enhanced response to nutrients / number of genes: not different from control / Activation z-score / Predicted activation state relative D2 control: motor neurons; for Activation z-score / Predicted activation state relative D2 control: D0 to LMW-DS treatment
Description: For each cell line, n=8 × 25 cm^2 culture flasks were set up. Two flasks were harvested for each cell type on the day of treatment (24 hours after seeding). This represents the Day0 time point. From the remaining flasks, three flasks were treated with Control Medium and three were treated with Culture Medium (CM) containing LMW-DS to give a final concentration of 0.01 mg/ml. Cells from the treated flasks were collected after 48 hours. Therefore the collected data represent (a) untreated cells (Day0 Controls and Day2 Controls) and (b) cells treated with LMW-DS (ILB®, Tikomed AB, Viken, Sweden, WO 2016/076780) for 48 hours (Day2 LMW-DS treated).
The culture medium was prepared according to Table 28.
Medium (see Table 28) was pre-warmed to 37° C. Cells were thawed in a 37° C. water bath for no longer than 2 min. 9 ml of media was gently added drop-wise. The cell suspension was mixed by inverting the tube carefully twice. The cells were counted with a Cellometer. The cells were centrifuged for 5 minutes at 200 x g. Supernatant was removed (to the last 0.5 ml) and cells were gently re-suspended by trituration. The cells from the 8 vials were mixed and distributed equally into the previously coated 25 cm^2 flasks (n=8). Cells were incubated at 37° C. with 5% CO2 for 24 hours before treatment.
LMW-DS was provided at a stock concentration of 20 mg/ml and was kept in a temperature monitored refrigerator at 4° C. A fresh 100x LMW-DS stock (1.0 mg/ml) was prepared in sterile DMEM-F12. The concentrated drug stock was sterile filtered and added to the respective culture media (19.6 ml CM and 0.4 ml LMW-DS stock solution). The Control was made using 19.6 ml CM and 0.4 ml of DMEM-F12. LMW-DS and CM were added to the respective flasks (5 ml each) to reach the 0.01 mg/ml concentration of LMW-DS in each dish with a total of 10 ml CM each.
CM was aspirated into a clean and labelled 15 ml Falcon tube. The flasks (without culture medium) were placed into the -80° C. freezer for 30 minutes. The CM in the Falcon tubes was spun at 3000 x g for 5 minutes. Supernatant was removed and the small pellet was re-suspended in 2.5 ml Trizol:Water (4:1) solution at room temperature (RT, ~22° C.).
Two aliquots of 1 ml lysate were removed from each sample and 200 µl of chloroform was added to each (0.2 ml of chloroform per 1 ml of TRIzol Reagent used during the cell lysis step) and the tube was shaken vigorously. Samples were stored at RT for 2-3 minutes and subsequently centrifuged at 12,000 x g for 15 minutes at 4° C.
The RNA was precipitated from the aqueous phase by adding an equal amount of 100% ethanol. The precipitated RNA was fixed onto a Spin Cartridge, washed twice and dried. The RNA was eluted in 50 µl warm RNase-Free Water. The amount and quality of the purified RNA was measured by Nanodrop. The RNA was stored at -80° C. before transfer to Source Bioscience for Array analysis.
The expression data were downloaded into separate files for each cell line. The ‘Background corrected’ expression is the data from the “gProcessedSignal” of the arrays that is the result of the background signal extracted from the actual signal of the relevant probe. This is the most often used variable in array analysis. The background corrected signal was log2 transformed for all samples for statistical analysis. To reduce the false discovery rate in the samples, the signals that were below ‘expression level’ were removed. The ‘below expression’ level was set at 5 for the log2 transformed expression values.
Based on the expression pattern of the Control probes on each array it was decided to carry out Median Centering for all arrays before analysis to reduce the variability of the results. […]

[1] = pathway analysis of gene expression

sodium salt of dextran sulfate [LMW-DS] was tested, and the “number of differentially expressed genes” value (D0 control to D2 LMW-DS treated) was 315, the “number of differentially expressed genes” value (D0 control to D2 LMW-DS treated (second statement)) was 425 and the “number of genes: abolished nutrient effect” value (no effect) was 177. The “number of genes: new effect induced by LMW-DS” value (“number of genes … by LMW-DS” for short) (no effect) was 108, the “number of genes: total” value (no effect) was 285 and the “number of genes: abolished nutrient effect” value (significant downregulation) was 47. For the same substance, the “number of genes: enhanced response to nutrients” value (“number of genes … to nutrients” for short) (significant downregulation) was 36, the “number of genes … by LMW-DS” value (significant downregulation) was 375 and the “number of genes: not different from control” value (“number of genes: not different” for short) (significant downregulation) was 104. For the same substance, the “number of genes: total” value (significant downregulation) was 562, the “number of genes: abolished nutrient effect” value (significant upregulation) was 40 and the “number of genes … to nutrients” value (significant upregulation) was 103. The “number of genes … by LMW-DS” value (significant upregulation) was 71, the “number of genes: not different” value (significant upregulation) was 75 and the “number of genes: total” value (significant upregulation) was 289. The “number of genes: abolished nutrient effect” value (total) was 264, the “number of genes … to nutrients” value (total) was 139 and the “number of genes … by LMW-DS” value (total) was 554. The “number of genes: not different” value (total) was 179, the “number of genes: total” value (total) was 1136 and the amyloid-β production [1] was “preventing”. For the same substance, the “inhibition of glutamate production” value [1] was “not affected”, the “level of H2O2” value [1] was “reduced” and the Activation z-score (upstream regulator AGT) was 2.631. The “Predicted activation state relative D2 control” value (upstream regulator AGT) was “Activated”, the Activation z-score (upstream regulator BMP4) was 0.972 and the “Predicted activation state relative D2 control” value (upstream regulator BMP4) was “More activated relative to control”. The Activation z-score (upstream regulator BMP6) was 0.13, the “Predicted activation state relative D2 control” value (upstream regulator BMP6) was “More activated relative to control” and the Activation z-score (upstream regulator BMP7) was 1.092. The “Predicted activation state relative D2 control” value (upstream regulator BMP7) was “More activated relative to control”, the Activation z-score (upstream regulator INHA) was 0.588 and the “Predicted activation state relative D2 control” value (upstream regulator INHA) was “More activated relative to control”.
